# From patent US9113629B2, “4-amino-6-(4-substituted-phenyl)-picolinates and 6-amino-2-(4-substituted-phenyl)-pyrimidine-4-carboxylates and their use as herbicides” (DOW AGROSCIENCES LLC, priority 2013, dated 2015)
# Like-named read-outs stand apart in the source and are kept apart here.
# Tested on: test plant species in Direct Seeded Rice
# Assay: Postemergence herbicidal activity in direct seeded rice (Table 13)
# Assay type: in vivo
# Conditions: for GR50 BRAPP / GR80 BRAPP / GR50 CYPSS / GR80 CYPSS / GR50 ECHSS / GR80 ECHSS / GR50 LEFSS / GR80 LEFSS / GR20 ORYSS / GR50 SCPJU / GR80 SCPJU / GR50 SEBEX / GR80 SEBEX: probit analysis; for GR20 ORYSS: ORYSS: Oryza sativa (crop); for pest or weed control at 35 g/ha / pest or weed control at 70 g/ha: post-emergence, 504 h; for pest or weed control at 35 g/ha: 35 g ai/ha; for pest or weed control at 70 g/ha: 70 g ai/ha
# Description: Seeds or nutlets of the desired test plant species were planted in a soil matrix prepared by mixing a loam soil (43 percent silt, 19 percent clay, and 38 percent sand, with a pH of about 8.1 and an organic matter content of about 1.5 percent) and river sand in an 80 to 20 ratio. The soil matrix was contained in plastic pots with a surface area of 139.7 cm^2. When required to ensure good germination and healthy plants, a fungicide treatment and/or other chemical or physical treatment was applied. The plants were grown for 10-17 d in a greenhouse with an approximate 14-h photoperiod which was maintained at about 29° C. during the day and 26° C. during the night. Nutrients and water were added on a regular basis and supplemental lighting was provided with overhead metal halide 1000-Watt lamps as necessary. The plants were employed for testing when they reached the second or third true leaf stage. A weighed amount, determined by the highest rate to be tested, of each test compound was placed in 25 mL glass vials and dissolved in a volume of 97:3 v/v acetone-DMSO to obtain 12× stock solutions. […] The concentrated stock solutions were added to the spray solutions so that the final acetone and DMSO concentrations were 16.2% and 0.5%, respectively. Spray solutions were diluted to the appropriate final concentrations with the addition of 10 mL of an aqueous mixture of 1.5% (v/v) Agri-dex crop oil concentrate. […] Compound requirements are based upon a 12 mL application volume at a rate of 187 L/ha. Formulated compounds were applied to the plant material with an overhead Mandel track sprayer equipped with […] nozzles calibrated to deliver 187 L/ha over an application area of 0.503 square meters (m^2) at a spray height of 18 inches (43 cm) above average plant canopy height. Control plants were sprayed in the same manner with the solvent blank. The treated plants and control plants were placed in a greenhouse as described above and watered by sub-irrigation to prevent wash-off of the test compounds. After 20-22 days, the condition of the test plants, compared with that of the untreated plants, was determined visually and scored on a scale of 0 to 100 percent where 0 corresponds to no injury and 100 corresponds to complete kill. By applying the well-accepted probit analysis as described by J. Berkson in Journal of the American Statistical Society, 48, 565 (1953) and by D. Finney in “Probit Analysis” Cambridge University Press (1952), the above data can be used to calculate GR20, GR50, GR80 and GR90 values, which are defined as growth reduction factors that correspond to the effective dose of herbicide required to kill or control 20 percent, 50 percent, 80 percent or 90 percent, respectively, of a target plant.
# [1] = BRAPP: broadleaf signalgrass, Brachiaria platyphylla
# [2] = CYPSS: sedge (Cyperus difformis, esculentus, iria)
# [3] = ECHSS: barnyardgrass (Echinochloa crus-galli), junglerice (Echinochloa colonum)
# [4] = LEFSS: sprangletop (Leptochloa chinensis, Leptochloa dubia)
# [5] = SCPJU: Japanese bulrush, Scirpus juncoides
# [6] = SEBEX: hemp sesbania, Sesbania exaltata
# [7] = BRAPP: broadleaf signalgrass, Brachiaria platyphylla, read-out: Visual Growth Reduction (%) 21 Days After Application BRAPP
# [8] = CYPSS: sedge (Cyperus difformis, esculentus, iria), read-out: Visual Growth Reduction (%) 21 Days After Application CYPSS
# [9] = ECHSS: barnyardgrass (Echinochloa crus-galli), junglerice (Echinochloa colonum), read-out: Visual Growth Reduction (%) 21 Days After Application ECHSS
# [10] = LEFSS: sprangletop (Leptochloa chinensis, Leptochloa dubia), read-out: Visual Growth Reduction (%) 21 Days After Application LEFSS
# [11] = ORYSS: Oryza sativa, read-out: Visual Growth Reduction (%) 21 Days After Application ORYSS
# [12] = SCPJU: Japanese bulrush, Scirpus juncoides, read-out: Visual Growth Reduction (%) 21 Days After Application SCPJU
# [13] = SEBEX: hemp sesbania, Sesbania exaltata, read-out: Visual Growth Reduction (%) 21 Days After Application SEBEX
Compound,GR50 BRAPP [1],GR80 BRAPP [1],GR50 CYPSS [2],GR80 CYPSS [2],GR50 ECHSS [3],GR80 ECHSS [3],GR50 LEFSS [4],GR80 LEFSS [4],GR20 ORYSS,GR50 SCPJU [5],GR80 SCPJU [5],GR50 SEBEX [6],GR80 SEBEX [6],pest or weed control at 35 g/ha [7],pest or weed control at 70 g/ha [7],pest or weed control at 35 g/ha [8],pest or weed control at 70 g/ha [8],pest or weed control at 35 g/ha [9],pest or weed control at 70 g/ha [9],pest or weed control at 35 g/ha [10],also measured
Nc1cc(-c2ccc(Br)cc2F)nc(C(=O)O)c1Cl [Compound 74],1 g ai/ha,5 g ai/ha,5 g ai/ha,10 g ai/ha,1 g ai/ha,1 g ai/ha,6 g ai/ha,13 g ai/ha,4 g ai/ha,1 g ai/ha,1 g ai/ha,1 g ai/ha,1 g ai/ha,95 to 100%,95 to 100%,95 to 100%,95 to 100%,95 to 100%,95 to 100%,95 to 100%,pest or weed control at 70 g/ha [10]: 95 to 100%; pest or weed control at 35 g/ha [11]: 60 to 74%; pest or weed control at 70 g/ha [11]: 60 to 74%; pest or weed control at 35 g/ha [12]: 95 to 100%; pest or weed control at 70 g/ha [12]: 95 to 100%; pest or weed control at 35 g/ha [13]: 95 to 100%; pest or weed control at 70 g/ha [13]: 95 to 100%
COC(=O)c1nc(-c2ccc(Br)cc2F)cc(N)c1Cl [Compound 93],1 g ai/ha,1 g ai/ha,1 g ai/ha,2 g ai/ha,1 g ai/ha,1 g ai/ha,6 g ai/ha,11 g ai/ha,13 g ai/ha,1 g ai/ha,1 g ai/ha,1 g ai/ha,1 g ai/ha,95 to 100%,95 to 100%,95 to 100%,95 to 100%,95 to 100%,95 to 100%,95 to 100%,pest or weed control at 70 g/ha [10]: 95 to 100%; pest or weed control at 35 g/ha [11]: 45 to 59%; pest or weed control at 70 g/ha [11]: 60 to 74%; pest or weed control at 35 g/ha [12]: 95 to 100%; pest or weed control at 70 g/ha [12]: 95 to 100%; pest or weed control at 35 g/ha [13]: 95 to 100%; pest or weed control at 70 g/ha [13]: 95 to 100%
COC(=O)c1nc(-c2ccc(I)cc2)c(Cl)c(N)c1Cl [Compound 96],19 g ai/ha,58 g ai/ha,3 g ai/ha,6 g ai/ha,29 g ai/ha,84 g ai/ha,27 g ai/ha,58 g ai/ha,130 g ai/ha,1 g ai/ha,1 g ai/ha,1 g ai/ha,1 g ai/ha,60 to 74%,85 to 94%,95 to 100%,95 to 100%,45 to 59%,85 to 94%,85 to 94%,pest or weed control at 70 g/ha [10]: 75 to 84%; pest or weed control at 35 g/ha [11]: 0 to 29%; pest or weed control at 70 g/ha [11]: 0 to 29%; pest or weed control at 35 g/ha [12]: 95 to 100%; pest or weed control at 70 g/ha [12]: 95 to 100%; pest or weed control at 35 g/ha [13]: 95 to 100%; pest or weed control at 70 g/ha [13]: 95 to 100%
Nc1cc(-c2ccc(I)cc2F)nc(C(=O)O)c1Cl [Compound 124],4 g ai/ha,8 g ai/ha,1 g ai/ha,1 g ai/ha,2 g ai/ha,6 g ai/ha,7 g ai/ha,16 g ai/ha,1 g ai/ha,1 g ai/ha,1 g ai/ha,1 g ai/ha,1 g ai/ha,95 to 100%,95 to 100%,95 to 100%,95 to 100%,95 to 100%,95 to 100%,95 to 100%,pest or weed control at 70 g/ha [10]: 95 to 100%; pest or weed control at 35 g/ha [11]: 60 to 74%; pest or weed control at 70 g/ha [11]: 85 to 94%; pest or weed control at 35 g/ha [12]: 95 to 100%; pest or weed control at 70 g/ha [12]: 95 to 100%; pest or weed control at 35 g/ha [13]: 95 to 100%; pest or weed control at 70 g/ha [13]: 95 to 100%
Nc1c(Cl)c(C(=O)O)nc(-c2ccc(Br)cc2)c1Cl [Compound 125],46 g ai/ha,>70 g ai/ha,4 g ai/ha,10 g ai/ha,40 g ai/ha,>70 g ai/ha,43 g ai/ha,>70 g ai/ha,0 g ai/ha,1 g ai/ha,1 g ai/ha,1 g ai/ha,1 g ai/ha,45 to 59%,60 to 74%,95 to 100%,95 to 100%,45 to 59%,60 to 74%,45 to 59%,pest or weed control at 70 g/ha [10]: 60 to 74%; pest or weed control at 35 g/ha [11]: 0 to 29%; pest or weed control at 70 g/ha [11]: 0 to 29%; pest or weed control at 35 g/ha [12]: 95 to 100%; pest or weed control at 70 g/ha [12]: 95 to 100%; pest or weed control at 35 g/ha [13]: 95 to 100%; pest or weed control at 70 g/ha [13]: 95 to 100%
"COC(=O)c1nc(-c2ccc(C#N)c(F)c2)c(F)c(N)c1Cl [Compound 135, methyl 4-amino-3-chloro-6-(4-cyano-3-fluorophenyl)-5-fluoropicolinate]",4 g ai/ha,11 g ai/ha,5 g ai/ha,49 g ai/ha,17 g ai/ha,70 g ai/ha,57 g ai/ha,114 g ai/ha,>70 g ai/ha,2 g ai/ha,5 g ai/ha,1 g ai/ha,1 g ai/ha,85 to 94%,85 to 94%,75 to 84%,85 to 94%,75 to 84%,75 to 84%,0 to 29%,pest or weed control at 70 g/ha [10]: 60 to 74%; pest or weed control at 35 g/ha [11]: 0 to 29%; pest or weed control at 70 g/ha [11]: 0 to 29%; pest or weed control at 35 g/ha [12]: 85 to 94%; pest or weed control at 70 g/ha [12]: 95 to 100%; pest or weed control at 35 g/ha [13]: 95 to 100%; pest or weed control at 70 g/ha [13]: 95 to 100%
